From the NIST ThermoML archive (doi:10.1016/j.jct.2006.09.017)

Key:
[1] = 101.33 kPa, Liquid
[2] = xn = mol fraction of the nth substance listed; conditions: 101 kPa, Liquid

CN1CCN(C)C1=O [1,3-dimethyl-2-imidazolidinone]
[1]
Conditions	mass density [kg/m3]
283.15 K	1064.86
298.15 K	1051.59
313.15 K	1038.38

CN1CCN(C)C1=O [1,3-dimethyl-2-imidazolidinone] + CCCCCCCCO
mass density [kg/m3], [2]
Conditions	x1 = 0.09996	x1 = 0.2	x1 = 0.3002	x1 = 0.4001	x1 = 0.5	x1 = 0.599	x1 = 0.7002	x1 = 0.7996	x1 = 0.8999
283.15 K	848.3	865.7	884.37	904.35	925.89	948.94	974.48	1001.78	1031.95
298.15 K	837.74	854.88	873.28	893.01	914.29	937.08	962.3	989.29	1019.12
313.15 K	827.05	843.97	862.14	881.63	902.66	925.21	950.12	976.81	1006.31

CN1CCN(C)C1=O [1,3-dimethyl-2-imidazolidinone] + CCCCCCCO
mass density [kg/m3], [2]
Conditions	x1 = 0.09996	x1 = 0.1999	x1 = 0.3001	x1 = 0.4	x1 = 0.5	x1 = 0.6001	x1 = 0.7	x1 = 0.8001	x1 = 0.8992
283.15 K	847.64	866.92	887.24	908.58	931.08	954.87	979.95	1006.61	1034.61
298.15 K	836.89	855.89	875.96	897.05	919.28	942.82	967.68	994.04	1021.77
313.15 K	826.03	844.8	864.62	885.45	907.49	930.78	955.41	981.47	1009.02

CN1CCN(C)C1=O [1,3-dimethyl-2-imidazolidinone] + CCCCCCO
mass density [kg/m3], [2]
Conditions	x1 = 0.1	x1 = 0.2	x1 = 0.3	x1 = 0.4001	x1 = 0.5	x1 = 0.6001	x1 = 0.7002	x1 = 0.7998	x1 = 0.9001
283.15 K	847.11	868.74	890.96	913.77	937.21	961.32	986.12	1011.48	1037.74
298.15 K	836.15	857.49	879.43	901.99	925.23	949.12	973.62	998.72	1024.71
313.15 K	825.02	846.12	867.81	890.13	913.07	936.71	961.04	985.96	1011.88

CN1CCN(C)C1=O [1,3-dimethyl-2-imidazolidinone] + CCCCCO
mass density [kg/m3], [2]
Conditions	x1 = 0.1	x1 = 0.2	x1 = 0.3	x1 = 0.4001	x1 = 0.5001	x1 = 0.6001	x1 = 0.7	x1 = 0.8002	x1 = 0.9
283.15 K	846.41	870.95	895.43	919.88	944.23	968.5	992.7	1016.92	1040.93
298.15 K	835.16	859.39	883.62	907.84	931.97	956.02	980.01	1004.03	1027.87
313.15 K	823.75	847.72	871.72	895.74	919.68	943.56	967.36	991.25	1014.87
